According to US7115632B1, “Sulfonyl aryl or heteroaryl hydroxamic acid compounds” (priority 1999, dated 2006):
Where a name gives a salt, the structure may show the parent alone.

Experiments:
[1] = biological target: T1, MMP-2 (Homo sapiens, UniProt P08253); experiment: In vitro metalloprotease inhibition, fluorogenic MCA peptide substrate; type: biochemical; conditions: Inhibition Table B
T1 construct: made in house; provided by Dr. Gregory Goldberg, Washington University
T1 sequence (P08253 110-660): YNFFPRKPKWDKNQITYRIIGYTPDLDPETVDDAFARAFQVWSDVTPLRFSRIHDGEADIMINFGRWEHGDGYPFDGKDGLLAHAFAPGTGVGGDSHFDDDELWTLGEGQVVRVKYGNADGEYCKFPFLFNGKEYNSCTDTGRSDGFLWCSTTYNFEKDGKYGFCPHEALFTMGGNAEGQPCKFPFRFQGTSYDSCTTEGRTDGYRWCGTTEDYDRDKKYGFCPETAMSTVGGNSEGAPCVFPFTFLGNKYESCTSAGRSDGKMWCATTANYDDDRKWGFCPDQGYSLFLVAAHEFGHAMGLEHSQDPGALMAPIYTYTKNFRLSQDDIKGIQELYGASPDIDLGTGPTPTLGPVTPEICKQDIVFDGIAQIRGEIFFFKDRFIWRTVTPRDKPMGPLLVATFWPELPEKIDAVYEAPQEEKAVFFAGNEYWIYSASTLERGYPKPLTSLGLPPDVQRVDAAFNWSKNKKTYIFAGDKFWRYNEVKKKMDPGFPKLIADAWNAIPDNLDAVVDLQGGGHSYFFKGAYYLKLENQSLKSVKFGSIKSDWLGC

[2] = biological target: T2, MMP-9 (Homo sapiens, UniProt P14780); experiment: as above; type: biochemical; conditions: Inhibition Table B
T2 construct: made in house; host or cells: transfected HT-1080 cells (provided by Dr. Harold Welgus)
Protocol: (§1) Briefly, 4-aminophenylmercuric acetate (APMA) or trypsin-activated MMPs were incubated with various concentrations of the inhibitor compound at room temperature for 5 minutes.
MMP-1 expressed in transfected HT-1080 cells was provided by Dr. Harold Welgus of Washington University, St. Louis, Mo. The enzyme was also activated using APMA and was then purified over a hydroxamic acid column. Dr. Welgus also provided transfected HT-1080 cells that expressed MMP-9. Transfected cells that expressed MMP-2 were provided by Dr. Gregory Goldberg, also of Washington University. Further specifics for preparation and use of these enzymes can be found in the scientific literature describing these enzymes. See, for example, Enzyme Nomenclature, Academic Press, San Diego, Calif. (1992) and the citations therein, and Frije et al., J. Biol. Chem., 26(24): 16766–16773 (1994).
(§2) MCA-ProLeuGlyLeuDpaAlaArgNH2, wherein MCA is methoxycoumarin and Dpa is 3-(2,4-dinitrophenyl)-L-2,3-diaminopropionyl alanine.
(§3) The buffer used for assays contained 100 mM Tris-HCl, 100 mM NaCl, 10 mM CaCl2 and 0.05 percent polyethyleneglycol (23) lauryl ether at a pH value of 7.5.
(§4) The ID50 values were calculated from those values.

[3] = biological target: MMP-8 (Homo sapiens, UniProt P22894); experiment: as above; type: biochemical; conditions: Inhibition Table B
Protocol: as §1, §2, §3, §4

[4] = biological target: MT1-MMP (Homo sapiens, UniProt P50281); experiment: as above; type: biochemical; conditions: Inhibition Table B
Protocol: as §1, §2, §3, §4

[5] = biological target: MMP-3 (Homo sapiens, UniProt P08254); experiment: as above; type: biochemical; conditions: Inhibition Table B
[6] = biological target: T3, MMP-13 (Homo sapiens, UniProt P45452); experiment: as above; type: biochemical; conditions: Inhibition Table B
T3 construct: made in house; host or cells: insect cells, baculovirus expression
Source text: (§5) The expressed enzyme was purified first over a heparin agarose column and then over a chelating zinc chloride column. The proenzyme was activated by APMA for use in the assay.

[7] = biological target: T4, MMP-1 (Homo sapiens, UniProt P03956); experiment: as above; type: biochemical; conditions: Inhibition Table B
T4 construct: made in house; host or cells: transfected HT-1080 cells (provided by Dr. Harold Welgus, Washington University)
T4 sequence (P03956 100-469): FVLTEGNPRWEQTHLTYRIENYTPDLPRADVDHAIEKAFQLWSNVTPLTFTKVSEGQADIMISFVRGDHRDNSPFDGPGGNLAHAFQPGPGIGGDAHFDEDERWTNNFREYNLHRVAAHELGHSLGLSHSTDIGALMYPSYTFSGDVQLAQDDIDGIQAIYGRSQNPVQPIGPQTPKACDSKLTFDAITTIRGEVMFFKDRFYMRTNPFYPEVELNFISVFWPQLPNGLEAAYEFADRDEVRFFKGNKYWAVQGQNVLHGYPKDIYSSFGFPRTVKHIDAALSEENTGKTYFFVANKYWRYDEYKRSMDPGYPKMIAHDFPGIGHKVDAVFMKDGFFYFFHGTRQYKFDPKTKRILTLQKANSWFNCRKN
Source text: as §5

[8] = system: solid tumor cancers (colorectal, pancreatic, ovarian, prostate); conditions: cited from earlier work

T2 sequence (P14780 107-707 limits assumed): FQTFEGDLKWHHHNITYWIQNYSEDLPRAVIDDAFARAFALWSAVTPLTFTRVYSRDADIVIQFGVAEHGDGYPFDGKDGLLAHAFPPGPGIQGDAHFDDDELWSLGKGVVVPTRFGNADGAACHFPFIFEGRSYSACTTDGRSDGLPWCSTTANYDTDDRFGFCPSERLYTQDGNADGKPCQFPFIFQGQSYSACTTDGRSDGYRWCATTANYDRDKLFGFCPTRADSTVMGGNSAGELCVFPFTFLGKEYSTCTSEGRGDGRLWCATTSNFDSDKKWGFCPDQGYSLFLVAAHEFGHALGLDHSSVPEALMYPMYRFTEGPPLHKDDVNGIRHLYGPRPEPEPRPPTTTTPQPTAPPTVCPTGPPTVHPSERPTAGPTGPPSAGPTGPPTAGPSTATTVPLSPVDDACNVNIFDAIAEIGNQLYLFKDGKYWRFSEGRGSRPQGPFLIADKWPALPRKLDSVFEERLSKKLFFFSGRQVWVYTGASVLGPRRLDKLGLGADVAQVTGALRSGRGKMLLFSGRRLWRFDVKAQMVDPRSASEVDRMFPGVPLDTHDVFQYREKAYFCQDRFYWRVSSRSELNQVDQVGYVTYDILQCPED
MMP-3, sequence (P08254 100-477, species assumed): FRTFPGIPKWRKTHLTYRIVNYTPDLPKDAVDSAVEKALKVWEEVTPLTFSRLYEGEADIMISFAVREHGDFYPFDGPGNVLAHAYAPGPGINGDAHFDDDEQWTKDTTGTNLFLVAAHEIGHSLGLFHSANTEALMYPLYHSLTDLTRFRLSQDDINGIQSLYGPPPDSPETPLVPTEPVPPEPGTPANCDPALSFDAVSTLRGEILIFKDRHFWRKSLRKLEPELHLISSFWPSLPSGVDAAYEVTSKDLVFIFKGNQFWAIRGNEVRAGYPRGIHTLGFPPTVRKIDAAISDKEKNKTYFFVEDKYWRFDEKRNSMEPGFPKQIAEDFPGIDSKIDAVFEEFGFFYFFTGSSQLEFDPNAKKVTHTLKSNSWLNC
MMP-8, sequence (P22894 101-467, species assumed): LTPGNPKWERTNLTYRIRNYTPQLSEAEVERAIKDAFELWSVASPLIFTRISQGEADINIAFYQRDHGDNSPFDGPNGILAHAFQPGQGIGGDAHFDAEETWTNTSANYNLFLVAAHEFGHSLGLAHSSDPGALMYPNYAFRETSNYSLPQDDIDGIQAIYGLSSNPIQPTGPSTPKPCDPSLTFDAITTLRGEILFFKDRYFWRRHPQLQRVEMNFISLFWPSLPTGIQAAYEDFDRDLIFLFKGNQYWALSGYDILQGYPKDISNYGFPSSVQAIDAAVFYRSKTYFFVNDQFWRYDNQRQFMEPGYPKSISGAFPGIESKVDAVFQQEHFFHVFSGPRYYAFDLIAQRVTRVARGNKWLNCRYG

Row | Compound | IC50 [1] | IC50 [2] | IC50 [3] | IC50 [4] | IC50 [5] | IC50 [6] | IC50 [7] | most common drug-related toxicity ([8]; clinical trials, patients) | rise of cancer-specific antigens (surrogate markers for biological activity) ([8]; patients with advanced, rapidly progressive, treatment-refractory solid tumor cancers)
1 | COc1ccccc1-c1ccc(OC2CCN(S(=O)(=O)c3ccc(OC)c(OC)c3C(=O)NO)CC2)cc1 [Example 22] | 0.0155 µM | 0.3 µM | 0.8 µM | 2.5 µM | 0.17 µM | 0.0055 µM |  |  | 
2 | COc1ccc(S(=O)(=O)N2CCC(Sc3ccccc3)CC2)c(C(=O)NO)c1OC [Example 24, N-Hydroxy-2,3-dimethoxy-6-[[4-(phenylthio)-1-piperidinyl]sulfonyl]benzamide] | 0.0009 µM | 0.01 µM | 0.0107 µM | 0.0254 µM | 0.4 µM | 0.003 µM | > 10 µM |  | 
3 | COc1ccc(S(=O)(=O)N2CCN(c3ccc(C(F)(F)F)cc3)CC2)c(C(=O)NO)c1OC [Example 26, N-Hydroxy-2,3-dimethoxy-6-[[4-[4-(trifluoromethyl)phenyl]-1-piperazinyl]sulfonyl]benzamide] | 0.0065 µM | 0.97 µM | 0.0372 µM | 1.92 µM | 1.75 µM | 0.04 µM | > 10 µM |  | 
4 | COc1ccc(S(=O)(=O)N2CCC(Oc3ccc(-c4cccc(C(F)(F)F)c4)cc3)CC2)c(C(=O)NO)c1OC [Example 27, N-Hydroxyl-2,3-dimethoxy-6-[[4-[[3′-(trifluoromethyl)[1,1′-biphenyl]-4-yl]oxy]-1-piperidinyl]sulfonyl]benzamide] | 0.0033 µM | 0.52 µM | 0.21 µM | 0.69 µM | 0.3 µM | 0.003 µM | > 10 µM |  | 
5 | COc1ccc(S(=O)(=O)N2CCC(Oc3ccc(OC(F)(F)F)cc3)CC2)c(C(=O)NO)c1OC [Example 33] | 0.0009 µM | 0.0015 µM |  | 0.36 µM | 0.1 µM | 0.005 µM | > 10 µM |  | 
6 | O=C(NO)c1c(S(=O)(=O)N2CCC(Oc3ccc(C(F)(F)F)cc3)CC2)ccc2c1OCO2 [Example 36] | 0.003 µM | 0.008 µM | 0.0122 µM | 0.3 µM | 0.6 µM | 0.018 µM | > 10 µM |  | 
7 | COc1ccc(S(=O)(=O)N2CCC(Oc3ccc(-c4ccccc4C(F)(F)F)cc3)CC2)c(C(=O)NO)c1OC [Example 38, N-Hydroxy-2,3-dimethoxy-6-[[4-[[2′-(trifluoromethyl)[1,1′-biphenyl]-4-yl]oxy]-1-piperidinyl]sulfonyl]benzamide] | 0.02 µM |  | 1.7 µM |  |  | 0.082 µM |  |  | 
8 | COc1ccc(C(C)C)cc1-c1ccc(OC2CCN(S(=O)(=O)c3ccc(OC)c(OC)c3C(=O)NO)CC2)cc1 [Example 39] | 0.12 µM |  | 0.4 µM |  |  | 0.1 µM |  |  | 
9 | CCOc1ccccc1-c1ccc(OC2CCN(S(=O)(=O)c3ccc(OC)c(OC)c3C(=O)NO)CC2)cc1 [Example 40] | 0.08 µM |  | 4.4 µM |  |  | 0.05 µM |  |  | 
10 | COc1ccc(N2CCN(S(=O)(=O)c3ccc(OC)c(OC)c3C(=O)NO)CC2)cc1 [Example 41, N-Hydroxy-2,3-dimethoxy-6-[[4-(4-methoxyphenyl)-1-piperazinyl]sulfonyl]benzamide, monohydrochloride] | 0.006 µM | 0.47 µM | 0.12 µM | 4 µM | 8 µM | 0.1 µM | > 10 µM |  | 
11 | COc1ccc(OC2CCN(S(=O)(=O)c3ccc(OC)c(OC)c3C(=O)NO)CC2)cc1 [Example 45] | 0.0018 µM | 0.003 µM | 0.0114 µM | 0.3 µM | 0.9 µM | 0.0139 µM | > 10 µM |  | 
12 | COc1ccc(S(=O)(=O)N2CCC(Oc3ccc4c(c3)OCO4)CC2)c(C(=O)NO)c1OC [Example 50, 6-[[4-(1,3-Benzodioxole-5-yloxy)-1-piperinyl]sulfonyl]-N-hydroxy-2,3-dimethoxybenzamide] | 0.0011 µM | 0.009 µM | 0.0122 µM | 0.27 µM | 1.3 µM | 0.0186 µM | > 10 µM |  | 
13 | COc1ccc(S(=O)(=O)N2CCN(Cc3ccccc3)CC2)c(C(=O)NO)c1OC [Example 52, N-Hydroxy-2,3-dimethoxy-6-[[4-(phenylmethyl)-1-piperazinyl]sulfonyl]benzamide, monohydrochloride] | 1.5 µM |  | > 10 µM |  |  | 4 µM |  |  | 
14 | CCCCOc1ccc(OC2CCN(S(=O)(=O)c3ccc(OC)c(OC)c3C(=O)NO)CC2)cc1 [Example 54, 6-[[4-(4-Butoxyphenoxy)-1-piperidinyl]sulfonyl]-N-hydroxy-2,3-dimethoxybenzamide] | 0.0008 µM | 0.002 µM | 0.07 µM | 0.2 µM | 0.0316 µM | 0.0016 µM | > 10 µM |  | 
15 | CNC(=O)[C@@H](NC(=O)[C@H](CC(C)C)[C@H](O)C(=O)NO)C(C)(C)C [marimastat, Marimastat] |  |  |  |  |  |  |  | musculoskeletal pain and stiffness | dose-related reduction in the rise of cancer-specific antigens
